We go through two molecules from patent US20220280501A1, “USING GENO- OR P[…] ADJUST LSD DOSING” (Universitätsspital Basel, priority 2021, published 2022).

The nature of data set [1]: Pharmacokinetics of LSD by CYP genotype, pooled analysis of four phase 1 studies. As to conditions: for Cmax: human, oral, 100 ug, LSD Cmax, compartmental modeling, 100 μg LSD dose, mean±SD.
The conditions of data set [2]: human, Dolder et al., 2015; cited from earlier work.
The nature of data set [3]: Acute subjective effects of LSD (VAS, 5D-ASC) by genotype, pooled phase 1 studies. The data set is classed as in vivo, humans. As to the method: The Visual Analog Scales (VASs, FIG. 14, Table S5) were presented as 100 mm horizontal lines (0-100%), marked from “not at all” on the left to “extremely” on the right. Subjective effects like “closeness”, “talkative”, “open”, “concentration”, “speed of thinking”, and “trust” were bidirectional (±50 mm). The VASs were applied before and 0, 0.5, 1, 1.5, 2, 2.5, 3, 4, 5, 6, 7, 8, 9 and 10 h after LSD or placebo administration.
The 5 Dimensions of Altered States of Consciousness (5D-ASC) scale (Dittrich, 1998; Studerus et al., 2010) was administered at the end of the acute drug effects to retrospectively rate peak drug responses. The main subscales describing alterations of consciousness are Oceanic Boundlessness (OB), Anxious of Ego Dissolution (AED), Visionary Restructuralization (VR) (FIG. 16).

The subject of data set [4] is cytochrome P450 enzymes (CYPs). As to conditions: human liver S9 fraction; cited from earlier work.
For data set [5] the following is noted: cited from earlier work; for duration of LSD effects (mean±SD) / duration of LSD effects (range): Dolder et al., 2017b.
The subject of data set [6] is cytochrome P450 enzymes (CYPs). As to conditions: human liver microsomes; cited from earlier work.
For data set [7] the following is noted: cited from earlier work; for subjects with bad drug effects (50% or more on a 0-100% scale at any time point): Dolder et al., 2017a.
A short description of data set [8]: Autonomic (physiological) effects of LSD, pooled phase 1 studies. The data set is classed as in vivo, humans. As to the method:
Blood pressure, heart rate, and body temperature were assessed repeatedly before and 0, 0.5, 1, 1.5, 2, 2.5, 3, 4, 5, 6, 7, 8, 9, and 10 h after LSD or placebo administration. Systolic and diastolic blood pressure and heart rate were measured using an automatic oscillometric device (OMRON Healthcare Europe NA, Hoofddorp, Netherlands). The measurements were performed in duplicate at an interval of 1 minute and after a resting time of at least 5 minutes. The averages were calculated for the analysis. Mean arterial pressure (MAP) was calculated as diastolic blood pressure+(systolic blood pressure−diastolic blood pressure)/3. The rate pressure product (RPP) was calculated as systolic blood pressure×heart rate. Core (tympanic) temperature was measured using a Genius 2 ear thermometer (Tyco Healthcare Group LP, Watertown, N.Y., USA).

For data set [9] the following is noted: Holze et al., 2021b; cited from earlier work.
Where [10] appears, read: non-functional vs functional CYP2D6.
[11] abbreviates: non-compartmental analysis, plasma.

“Also recorded” adds a separate entry of the source. Where two headings read alike, the source gives them in different places.

For `CCN(CC)C(=O)[C@@H]1C=C2c3cccc4c3C(O)(C[C@H]2N(C)C1)C(=O)N4` (stereo partly drawn) [O-H-LSD, 2-oxo-3-hydroxy LSD], in data set [1] (metabolite in plasma after LSD administration), the “AUC∞ values, CYP2D6 PMs compared with functional CYP2D6 subjects” value was “larger”. In addition, the “area under the curve blood plasma concentration (total drug exposure), higher in CYP2D6 poor metabolizers than in functional CYP2D6 carriers” value in data set [1] (setting [10]) was “approximately 75%”.

By Cmax is commonly meant the maximum level reached in the sampled fluid or tissue. `CCN(CC)C(=O)[C@@H]1C=C2c3cccc4[nH]cc(c34)C[C@H]2N(C)C1` [LSD, Lysergic acid diethylamide]: in data set [2], the “parent drug excreted in urine” value was around 1%. Further, the “alterations of the mind (5D-ASC total, AED and VR subscales), CYP2D6 PMs compared with functional CYP2D6 subjects” value in data set [3] (5D-ASC) is recorded as “significantly greater alterations of the mind”. For the same molecule, in data set [3] (HTR1A rs6295), the “5D-ASC total score and VR subscale, homozygous carriers of HTR1A rs6295 G allele vs carriers of a C allele” value was “rated lower; also recorded: lower total 5D-ASC, Visionary Restructuralization, and Blissful State ratings”. In addition, the “5D-ASC total score and AED subscale, carriers of two HTR2A rs6313 A alleles vs G allele carriers” value in data set [3] (HTR2A rs6313) is listed as “lower ratings; also recorded: lower alterations of the mind”. For the same molecule, the “duration of the acute subjective response, CYP2D6 PMs compared with functional CYP2D6 subjects” value in data set [3] (VAS any drug effect) was “substantially longer duration; also recorded: longer subjective effect durations”. Further, in data set [3] (healthy subjects), the “acute subjective effects compared to placebo” value is recorded as “significant acute subjective effects on all scales”. For the same molecule, in data set [4], the “CYPs contributing to the hydroxylation of LSD” value was “CYP1A2 and CYP3A4”; the “CYPs involved in the formation of Nor-LSD” value was “CYP2C19 and 3A4”. Also, in data set [5] (100 μg), the “duration of LSD effects (mean±SD)” value is 8.2 ± 2.1 h and the “duration of LSD effects (range)” value is 5 to 14 h. Further, in data set [5] (100 μg, Holze et al., 2019), the “duration of subjective effects (mean±SD)” value was 8.5 ± 2.0 h and the “duration of subjective effects (range)” value is 5.3 to 12.8 h. Besides, in [5] (200 μg), the “duration of LSD effects (mean±SD)” value is 11.6 ± 1.7 h and the “duration of LSD effects (range)” value is 7 to 19.5 h. In addition, in data set [6], the “CYPs contributing to the N-demethylation of LSD to 6-nor-LSD (Nor-LSD)” value is “CYP2D6, 3A4, and 2E1”; the “CYPs taking part in the formation of the main metabolite 2-oxo-3-hydroxy-LSD (O-H-LSD)” value is “CYP2C9, CYP1A2, CYP2E1, and CYP3A4”. For the same molecule, the “subjects with bad drug effects (50% or more on a 0-100% scale at any time point)” value in data set [7] (100 μg, 3 of 24 subjects) is 12.5%. Also, the “subjects with transient bad drug effects” value in [7] (100 μg, 7 of 24 subjects, Holze et al., 2019a) is on record as 29%. The “subjects with bad drug effects (50% or more on a 0-100% scale at any time point)” value in data set [7] (200 μg, 9 of 16 subjects) is 56%. Also, in data set [7] (200 μg, sixteen healthy humans, Schmid et al., 2015), the “subjects with marked anxiety” value was “two”. Further, the “effect of genetic polymorphisms of other CYPs on pharmacokinetics or subjective or autonomic effects” value in [1] (CYP1A2, CYP2B6, CYP2C19, CYP2C9) was “no relevant effect”. The “exposure to LSD with lower CYP2D6 activity across all CYP2D6 genotype activity score groups” value in [1] (CYP2D6 activity score groups) is “significantly higher exposure”. Also, the “effect of sex or body weight on pharmacokinetics / concentration of LSD in plasma” value in [1] (LSD AUC∞ z-score vs body weight) is “no relevant effect; also recorded: did not relevantly alter”. In [1] (plasma, CYP2D6 PMs (non-functional, N=7)), this molecule had a maximum concentration (Cmax) of 2.37 ± 0.891 ng/mL. The Cmax in [1] (plasma, functional CYP2D6 subjects (N=74)) came to 2.06 ± 0.999 ng/mL. Moreover, in data set [1] (setting [11]), the “AUC∞ and AUC10 values, CYP2D6 PMs compared with functional CYP2D6 carriers” value is given as “significantly larger”; the “Cmax, effect of CYP2D6 function” value is recorded as “not significantly affected”. Also, in [1] (setting [10]), the “area under the curve blood plasma concentration (total drug exposure), higher in CYP2D6 poor metabolizers than in functional CYP2D6 carriers” value was “approximately 75%” and the “half-life (T1/2), CYP2D6 PMs compared with functional CYP2D6 subjects” value is “longer”. Also, the “mean peak concentration, higher in CYP2D6 PMs than in functional CYP2D6” value in data set [1] (non-functional vs functional CYP2D6, non-significant) was “approximately 15%”. Also, the “vital parameters, effect of 5-HT receptor genotypes” value in [8] (HTR1A, HTR1B, HTR2A genotypes) was “not affected”. In data set [8] (healthy subjects), the “blood pressure, heart rate, and body temperature compared to placebo” value is given as “moderately increased”. In data set [8] (in vivo), the “effect of CYP2D6 genotype on the autonomic response” value is given as “no relevant effect”. The “5D-ASC OB, AED and anxiety ratings, 200 μg compared to 100 μg” value in data set [9] was “did not result in higher OB ratings but increased AED and anxiety”.
